Results reported in the supplement of paper PMC10307832.

How the values were obtained:
Test in all cases: relative viability (nuclei count vs DMSO), 5 days (fraction); higher = more cells survive
NCI-H2087 = tested on: NCI-H2087
Procedure, shortened: (§1)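 Lung cancer cell lines were pin-tool dosed in 1536-well plates on the day after seeding, with either a lone drug or a fixed anchor-drug dose plus five library-drug doses (not always all listed) in √10 steps. Nuclei were counted on 4× images after 5 days. Relative viability is the ratio of treated-well to vehicle-well nuclei counts, with each value a median of duplicate plates.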

NCI-H727 = tested on: NCI-H727
Procedure, shortened: as §1

SK-LU-1 = tested on: SK-LU-1
Procedure, shortened: as §1

LXF-289 = tested on: LXF-289
Procedure, shortened: as §1

NCI-H3122 = tested on: NCI-H3122
Procedure, shortened: as §1

RERF-LC-KJ = tested on: RERF-LC-KJ
Procedure, shortened: as §1

LCLC-97TM1 = tested on: LCLC-97TM1
Procedure, shortened: as §1

NCI-H647 = tested on: NCI-H647
Procedure, shortened: as §1

NCI-H322M = tested on: NCI-H322M
Procedure, shortened: as §1

HCC-827 = tested on: HCC-827
Procedure, shortened: as §1

NCI-H1437 = tested on: NCI-H1437
Procedure, shortened: as §1

NCI-H2228 = tested on: NCI-H2228
Procedure, shortened: as §1

201T = tested on: 201T
Procedure, shortened: as §1

NCI-H1395 = tested on: NCI-H1395
Procedure, shortened: as §1

NCI-H1793 = tested on: NCI-H1793
Procedure, shortened: as §1

NCI-H1792 = tested on: NCI-H1792
Procedure, shortened: as §1

NCI-H1944 = tested on: NCI-H1944
Procedure, shortened: as §1

LCLC-103H = tested on: LCLC-103H
Procedure, shortened: as §1

BEN = tested on: BEN
Procedure, shortened: as §1

CAL-12T = tested on: CAL-12T
Procedure, shortened: as §1

NCI-H2405 = tested on: NCI-H2405
Procedure, shortened: as §1

`Cc1sc2c(c1C)C(c1ccc(Cl)cc1)=N[C@@H](CC(=O)OC(C)(C)C)c1nnc(C)n1-2` [JQ1] + Cc1nc(NC(=O)N2CCC[C@H]2C(N)=O)sc1-c1ccnc(C(C)(C)C(F)(F)F)c1 [Alpelisib] (partner 2 µM) gave a relative viability (NCI-H2087; first compound 0.04 µM) of 1.08, a relative viability (NCI-H2087; first compound 0.4 µM) of 0.811 and a relative viability (NCI-H2087; first compound 1.265 µM) of 0.625. For the same compound, the relative viability (NCI-H2087; first compound 4 µM) was 0.438, the relative viability (NCI-H727; first compound 0.04 µM) was 0.525 and the relative viability (NCI-H727; first compound 0.1265 µM) was 0.668. The relative viability (NCI-H727; first compound 0.4 µM) was 0.445, the relative viability (NCI-H727; first compound 1.265 µM) was 0.231 and the relative viability (NCI-H727; first compound 4 µM) was 0.222. For the same compound, the relative viability (SK-LU-1; first compound 0.04 µM) was 1.11, the relative viability (SK-LU-1; first compound 0.1265 µM) was 0.586 and the relative viability (SK-LU-1; first compound 0.4 µM) was 0.287. The relative viability (SK-LU-1; first compound 1.265 µM) was 0.167, the relative viability (SK-LU-1; first compound 4 µM) was 0.158 and the relative viability (LXF-289; first compound 0.04 µM) was 1.02. It also gave a relative viability (LXF-289; first compound 0.1265 µM) of 0.983, a relative viability (LXF-289; first compound 0.4 µM) of 0.97 and a relative viability (LXF-289; first compound 1.265 µM) of 0.718. For the same compound, the relative viability (LXF-289; first compound 4 µM) was 0.634, the relative viability (NCI-H3122; first compound 0.04 µM) was 0.833 and the relative viability (NCI-H3122; first compound 0.1265 µM) was 0.771. It also gave a relative viability (NCI-H3122; first compound 0.4 µM) of 0.963, a relative viability (NCI-H3122; first compound 1.265 µM) of 0.661 and a relative viability (NCI-H3122; first compound 4 µM) of 0.663. The relative viability (RERF-LC-KJ; first compound 0.04 µM) was 0.806, the relative viability (RERF-LC-KJ; first compound 0.1265 µM) was 0.925 and the relative viability (RERF-LC-KJ; first compound 0.4 µM) was 0.793. The relative viability (RERF-LC-KJ; first compound 1.265 µM) was 0.743, the relative viability (RERF-LC-KJ; first compound 4 µM) was 0.427 and the relative viability (LCLC-97TM1; first compound 0.1265 µM) was 0.233. The relative viability (LCLC-97TM1; first compound 0.4 µM) was 0.232, the relative viability (LCLC-97TM1; first compound 1.265 µM) was 0.133 and the relative viability (LCLC-97TM1; first compound 4 µM) was 0.128. For the same compound, the relative viability (NCI-H647; first compound 0.04 µM) was 0.998, the relative viability (NCI-H647; first compound 0.1265 µM) was 0.596 and the relative viability (NCI-H647; first compound 0.4 µM) was 0.447. For the same compound, the relative viability (NCI-H647; first compound 1.265 µM) was 0.156, the relative viability (NCI-H647; first compound 4 µM) was 0.132 and the relative viability (NCI-H322M; first compound 0.04 µM) was 0.752. The relative viability (NCI-H322M; first compound 0.1265 µM) was 0.77, the relative viability (NCI-H322M; first compound 0.4 µM) was 0.862 and the relative viability (NCI-H322M; first compound 1.265 µM) was 0.68. The relative viability (NCI-H322M; first compound 4 µM) was 0.587, the relative viability (HCC-827; first compound 0.04 µM) was 0.929 and the relative viability (HCC-827; first compound 0.4 µM) was 0.672. For the same compound, the relative viability (HCC-827; first compound 1.265 µM) was 1.07, the relative viability (HCC-827; first compound 4 µM) was 1.11 and the relative viability (NCI-H1437; first compound 0.04 µM) was 0.871. It also gave a relative viability (NCI-H1437; first compound 0.1265 µM) of 0.803, a relative viability (NCI-H1437; first compound 0.4 µM) of 0.515 and a relative viability (NCI-H1437; first compound 1.265 µM) of 0.284. It also gave a relative viability (NCI-H1437; first compound 4 µM) of 0.216, a relative viability (NCI-H2228; first compound 0.04 µM) of 0.644 and a relative viability (NCI-H2228; first compound 0.1265 µM) of 0.602. For the same compound, the relative viability (NCI-H2228; first compound 0.4 µM) was 0.504, the relative viability (NCI-H2228; first compound 1.265 µM) was 0.497 and the relative viability (NCI-H2228; first compound 4 µM) was 0.451. For the same compound, the relative viability (201T; first compound 0.04 µM) was 1.02, the relative viability (201T; first compound 0.1265 µM) was 0.926 and the relative viability (201T; first compound 0.4 µM) was 0.939. For the same compound, the relative viability (201T; first compound 1.265 µM) was 0.715, the relative viability (201T; first compound 4 µM) was 0.567 and the relative viability (NCI-H1395; first compound 0.04 µM) was 1.03. The relative viability (NCI-H1395; first compound 0.1265 µM) was 0.856, the relative viability (NCI-H1395; first compound 0.4 µM) was 0.813 and the relative viability (NCI-H1395; first compound 1.265 µM) was 0.495. For the same compound, the relative viability (NCI-H1395; first compound 4 µM) was 0.404, the relative viability (NCI-H1793; first compound 0.04 µM) was 0.653 and the relative viability (NCI-H1793; first compound 0.1265 µM) was 0.781. It also gave a relative viability (NCI-H1793; first compound 0.4 µM) of 0.558, a relative viability (NCI-H1793; first compound 1.265 µM) of 0.633 and a relative viability (NCI-H1793; first compound 4 µM) of 0.696. It also gave a relative viability (NCI-H1792; first compound 0.04 µM) of 0.702, a relative viability (NCI-H1792; first compound 0.4 µM) of 0.722 and a relative viability (NCI-H1792; first compound 1.265 µM) of 0.411. For the same compound, the relative viability (NCI-H1792; first compound 4 µM) was 0.364, the relative viability (NCI-H1944; first compound 0.04 µM) was 0.709 and the relative viability (NCI-H1944; first compound 0.1265 µM) was 0.722. It also gave a relative viability (NCI-H1944; first compound 0.4 µM) of 0.715, a relative viability (NCI-H1944; first compound 1.265 µM) of 0.544 and a relative viability (NCI-H1944; first compound 4 µM) of 0.397. The relative viability (LCLC-103H; first compound 0.04 µM) was 0.957, the relative viability (LCLC-103H; first compound 0.1265 µM) was 0.828 and the relative viability (LCLC-103H; first compound 0.4 µM) was 0.751. The relative viability (LCLC-103H; first compound 1.265 µM) was 0.572, the relative viability (BEN; first compound 0.04 µM) was 0.953 and the relative viability (BEN; first compound 0.1265 µM) was 0.918. The relative viability (BEN; first compound 0.4 µM) was 0.594, the relative viability (BEN; first compound 1.265 µM) was 0.332 and the relative viability (BEN; first compound 4 µM) was 0.273. It also gave a relative viability (CAL-12T; first compound 0.04 µM) of 1.08, a relative viability (CAL-12T; first compound 0.1265 µM) of 1.42 and a relative viability (CAL-12T; first compound 0.4 µM) of 0.919. The relative viability (CAL-12T; first compound 1.265 µM) was 0.325, the relative viability (CAL-12T; first compound 4 µM) was 0.328 and the relative viability (NCI-H2405; first compound 0.04 µM) was 0.824. The relative viability (NCI-H2405; first compound 0.4 µM) was 0.74, the relative viability (NCI-H2405; first compound 1.265 µM) was 0.436 and the relative viability (NCI-H2405; first compound 4 µM) was 0.256.
